IC50 data for 28 compounds are collected here from US8575201B2 (Boehringer Ingelheim International GmbH, priority 2010, dated 2013).

Assay [1] relates to synthesis of LTB4 in human whole blood. In words: Human whole blood LTB4 production inhibition assay. The class given is cell-based. To be noted: calcimycin stimulated, read-out: hWB LTB4 IC50. Put shortly:
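Heparinized human whole blood was preincubated with compound for 15 min at 37° C, then stimulated with calcimycin (20 μM final, in PBS pH 7.4) for a further 30 min at 37° C. Plasma LTB4 was quantified by antibody-based homogeneous time-resolved fluorescence.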

Assay [2] concerns the target recombinant human FLAP protein (Homo sapiens (Human), UniProt P20292). The assay can be described thus: FLAP binding assay (Scintillation Proximity Assay, displacement of [125I]L-691,831). The following applies: read-out: FLAP SPA IC50. In outline:
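Scintillation proximity displacement of an iodinated (125I) FLAP inhibitor by test compounds, using 100,000×g membrane fraction from lysed cells. Final beads 200 μg/well and protein 5 μg/well; plates shaken 2 h before reading.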
In general terms: Scintillation proximity formats need no separation of bound from free tracer.

Bounds are passed on as bounds.

In general, IC50 refers to the concentration that gives 50% inhibition.

Sequence of recombinant human FLAP protein (P20292 whole entry): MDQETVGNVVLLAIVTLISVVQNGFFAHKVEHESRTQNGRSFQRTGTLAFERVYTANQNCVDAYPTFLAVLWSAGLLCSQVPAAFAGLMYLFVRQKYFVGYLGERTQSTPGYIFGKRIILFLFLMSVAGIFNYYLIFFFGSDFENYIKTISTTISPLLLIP

With `CC(C)(C(=O)O)n1cc(-c2nc(C3(c4ccc(-c5cnc(N)nc5)nc4)CCC3)no2)cn1` [Example 65, 2-[4-(3-{1-[6-(2-aminopyrimidin-5-yl)pyridin-3-yl]cyclobutyl}-1,2,4-oxadiazol-5-yl)-1H-pyrazol-1-yl]-2-methylpropanoic acid], the figures for the half-inhibitory concentration (IC50) in assay [1] and in assay [2] were > 5000 nM and 590 nM, respectively.
In the same order, the values of `CC(C)NC(=O)Cn1cc(-c2nc(C3(c4ccc(-c5cnc(N)nc5)nc4)CCC3)no2)cn1` [Example 157, 2-[4-(3-{1-[6-(2-amino-pyrimidin-5-yl)-pyridin-3-yl]-cyclobutyl}-[1,2,4]oxadiazol-5-yl)-pyrazol-1-yl]-N-isopropyl-acetamide] are 560 nM and 79 nM.
Taken in the same sequence, the figures for `Cc1cc(-c2nc(C3(c4ccc(-c5cnc(N)nc5)cn4)CCOCC3)no2)n(C)n1` [Example 136, 5-(6-{4-[5-(1,3-dimethyl-1H-pyrazol-5-yl)-1,2,4-oxadiazol-3-yl]tetrahydro-2H-pyran-4-yl}pyridin-3-yl)pyrimidin-2-amine] were > 5000 nM and 540 nM.
In the same order, the values of `C[C@H](O)CNc1ccc(-c2nc(C3(c4ccc(-c5cnc(N)nc5)nc4)CCC3)no2)cn1` [Example 46, (2S)-1-{[5-(3-{1-[6-(2-aminopyrimidin-5-yl)pyridin-3-yl]cyclobutyl}-1,2,4-oxadiazol-5-yl)pyridin-2-yl]amino}propan-2-ol] are 110 nM and 2.4 nM.
Consider `CCNc1ccc(-c2nc(C3(c4ccc(-c5cnc(N)nc5)nc4)CCC3)no2)cn1` [Example 8, 5-[5-(1-{5-[6-(ethylamino)pyridin-3-yl]-1,2,4-oxadiazol-3-yl}cyclobutyl)pyridin-2-yl]pyrimidin-2-amine], for which the IC50 in assay [1] was 110 nM; in assay [2], 2 nM.
In the same order, the values of `Nc1ncc(-c2ccc(C3(c4noc(-c5cccnc5N)n4)CCC3)cn2)cn1` [Example 105, 5-(5-{1-[5-(2-aminopyridin-3-yl)-1,2,4-oxadiazol-3-yl]cyclobutyl}pyridin-2-yl)pyrimidin-2-amine] are 570 nM and 17 nM.
Turning to `Nc1ncc(-c2ccc(C3(c4noc(-c5ccc(NCC6(O)CC6)nc5)n4)CCC3)cn2)cn1` [Example 18, 1-({[5-(3-{1-[6-(2-aminopyrimidin-5-yl)pyridin-3-yl]cyclobutyl}-1,2,4-oxadiazol-5-yl)pyridin-2-yl]amino}methyl)cyclo-propanol], the concentration for half-maximal inhibition (IC50) in assay [1] is 95 nM; in assay [2] it was 1.8 nM.
In the same order, the values of `Nc1ncc(-c2ccc(C3(c4noc(-c5cnn(CC(F)F)c5)n4)CCC3)cn2)cn1` [Example 68, 5-[5-(1-{5-[1-(2,2-difluoroethyl)-1H-pyrazol-4-yl]-1,2,4-oxadiazol-3-yl}cyclobutyl)pyridin-2-yl]pyrimidin-2-amine] are 160 nM and 6.1 nM.
Taken in the same sequence, the figures for `Nc1ncc(-c2ccc(C3(c4noc(-c5ccncn5)n4)CCC3)cn2)cn1` [Example 92, 5-(5-{1-[5-(pyrimidin-4-yl)-1,2,4-oxadiazol-3-yl]cyclobutyl}pyridin-2-yl)pyrimidin-2-amine] were 2200 nM and 130 nM.
In the same order, the values of `Nc1ncc(-c2ccc(C3(c4noc(-c5ccc(Cl)nc5)n4)CCC3)cn2)cn1` [Example 99, 5-(5-{1-[5-(6-chloropyridin-3-yl)-1,2,4-oxadiazol-3-yl]cyclobutyl}pyridin-2-yl)pyrimidin-2-amine] are 660 nM and 7.5 nM.
On to `Nc1ncc(-c2ccc(C3(c4noc(-c5cncnc5)n4)CCC3)cn2)cn1` [Example 100, 5-(5-{1-[5-(pyrimidin-5-yl)-1,2,4-oxadiazol-3-yl]cyclobutyl}pyridin-2-yl)pyrimidin-2-amine], for which the IC50 worked out at 960 nM in assay [1] and 120 nM in assay [2].
With `CN(C(=O)Cn1cc(-c2nc(C3(c4ccc(-c5cnc(N)nc5)nc4)CCC3)no2)cn1)C1CC1` [Example 160, 2-[4-(3-{1-[6-(2-amino-pyrimidin-5-yl)-pyridin-3-yl]-cyclobutyl}-[1,2,4]oxadiazol-5-yl)-pyrazol-1-yl]-N-cyclopropyl-N-methyl-acetamide], the figures for the IC50 in assay [1] and in assay [2] were 540 nM and 95 nM, respectively.
Taken in the same sequence, the figures for `Cc1cccc(-c2nc(C3(c4ccc(-c5cnc(N)nc5)nc4)CCC3)no2)c1` [Example 5, 5-(5-{1-[5-(3-methylphenyl)-1,2,4-oxadiazol-3-yl]cyclobutyl}pyridin-2-yl)pyrimidin-2-amine] were 1100 nM and 8.8 nM.
As for `CC(C)(O)CNc1ccc(-c2nc(C3(c4ccc(-c5cnc(N)nc5)nc4)CCC3)no2)cn1` [Example 12, 1-{[5-(3-{1-[6-(2-aminopyrimidin-5-yl)pyridin-3-yl]cyclobutyl}-1,2,4-oxadiazol-5-yl)pyridin-2-yl]amino}-2-methylpropan-2-ol], the IC50 is 140 nM in assay [1] and 2.1 nM in assay [2].
In the same order, the values of `Cn1cc(-c2nc(C3(c4ccc(-c5cnc(N)nc5)nc4)CCC3)no2)ccc1=O` [Example 26, 5-(3-{1-[6-(2-aminopyrimidin-5-yl)pyridin-3-yl]cyclobutyl}-1,2,4-oxadiazol-5-yl)-1-methylpyridin-2(1H)-one] are 730 nM and 110 nM.
Turning to `COC(=O)[C@H]1CN(c2ccc(-c3nc(C4(c5ccc(-c6cnc(N)nc6)nc5)CCC4)no3)cn2)CCN1` [Example 40, methyl (2R)-4-[5-(3-{1-[6-(2-aminopyrimidin-5-yl)pyridin-3-yl]cyclobutyl}-1,2,4-oxadiazol-5-yl)pyridin-2-yl]piperazine-2-carboxylate], the IC50 in assay [1] was 92 nM; in assay [2] it was 3.3 nM.
In the same order, the values of `N#Cc1cc(-c2ccc(C3(c4noc(-c5cnn(C6COC6)c5)n4)CCC3)cn2)cnc1N` [Example 167, 6′-Amino-5-{1-[5-(1-oxetan-3-yl-1H-pyrazol-4-yl)-[1,2,4]oxadiazol-3-yl]-cyclobutyl}-[2,3′]bipyridinyl-5′-carbonitrile] are 680 nM and 140 nM.
`CC(C)(N)Cn1cc(-c2nc(C3(c4ccc(-c5cnc(N)nc5)nc4)CCC3)no2)cn1` [Example 150, 5-[5-(1-{5-[1-(2-amino-2-methyl-propyl)-1H-pyrazol-4-yl]-[1,2,4]oxadiazol-3-yl}-cyclobutyl)-pyridin-2-yl]-pyrimidin-2-ylamine]: the IC50 stood at 370 nM in assay [1] and 68 nM in assay [2].
Taken in the same sequence, the figures for `Nc1ncc(-c2ccc(C3(c4noc(-c5ccc(N6CCNCC6)cc5)n4)CCC3)cn2)cn1` [Example 62, 5-[5-(1-{5-[4-(piperazin-1-yl)phenyl]-1,2,4-oxadiazol-3-yl}cyclobutyl)pyridin-2-yl]pyrimidin-2-amine] were 72 nM and 2.6 nM.
As for `Nc1ncc(-c2ccc(C3(c4noc(-c5c[nH]cn5)n4)CCC3)cn2)cn1` [Example 75, 5-(5-{1-[5-(1H-imidazol-4-yl)-1,2,4-oxadiazol-3-yl]cyclobutyl}pyridin-2-yl)pyrimidin-2-amine], the IC50 in assay [1] was found to be 580 nM; in assay [2], 19 nM.
In the same order, the values of `COc1cc(-c2nc(C3(c4ccc(-c5cnc(N)nc5)nc4)CCC3)no2)ccn1` [Example 93, 5-(5-{1-[5-(2-methoxypyridin-4-yl)-1,2,4-oxadiazol-3-yl]cyclobutyl}pyridin-2-yl)pyrimidin-2-amine] are 400 nM and 9.6 nM.
Taken in the same sequence, the figures for `Nc1ncc(-c2ccc(C3(c4noc(-c5ccc(N6CCOCC6)nc5)n4)CCC3)cn2)cn1` [Example 89, 5-[5-(1-{5-[6-(morpholin-4-yl)pyridin-3-yl]-1,2,4-oxadiazol-3-yl}cyclobutyl)pyridin-2-yl]pyrimidin-2-amine] were 180 nM and 2.7 nM.
With `CCOC(=O)CCN1CCN(c2ccc(-c3nc(C4(c5ccc(-c6cnc(N)nc6)nc5)CCC4)no3)cn2)CC1` [Example 47, ethyl 3-{4-[5-(3-{1-[6-(2-aminopyrimidin-5-yl)pyridin-3-yl]cyclobutyl}-1,2,4-oxadiazol-5-yl)pyridin-2-yl]piperazin-1-yl}propanoate], the half-maximal inhibitory concentration (IC50) in assay [1] stood at 170 nM; in assay [2], 3.4 nM.
As for `Nc1ncc(-c2ccc(C3(c4noc(-c5ccc(=O)[nH]c5)n4)CCC3)cn2)cn1` [Example 108, 5-(3-{1-[6-(2-aminopyrimidin-5-yl)pyridin-3-yl]cyclobutyl}-1,2,4-oxadiazol-5-yl)pyridin-2(1H)-one], the concentration for half-maximal inhibition (IC50) in assay [1] worked out at 720 nM; in assay [2], 48 nM.
As to `Nc1ncc(-c2ccc(C3(c4noc(-c5cnccc5N)n4)CCC3)cn2)cn1` [Example 106, 5-(5-{1-[5-(4-aminopyridin-3-yl)-1,2,4-oxadiazol-3-yl]cyclobutyl}pyridin-2-yl)pyrimidin-2-amine], the concentration for half-maximal inhibition (IC50) in assay [1] was found to be 840 nM; in assay [2], 31 nM.
Taken in the same sequence, the figures for `COc1ccncc1-c1nc(C2(c3ccc(-c4cnc(N)nc4)nc3)CCC2)no1` [Example 86, 5-(5-{1-[5-(4-methoxypyridin-3-yl)-1,2,4-oxadiazol-3-yl]cyclobutyl}pyridin-2-yl)pyrimidin-2-amine] were 1100 nM and 18 nM.
For `COC(=O)[C@H]1CNCCN1c1ccc(-c2nc(C3(c4ccc(-c5cnc(N)nc5)nc4)CCC3)no2)cn1` [Example 38, methyl (2R)-1-[5-(3-{1-[6-(2-aminopyrimidin-5-yl)pyridin-3-yl]cyclobutyl}-1,2,4-oxadiazol-5-yl)pyridin-2-yl]piperazine-2-carboxylate], the values for the IC50 in assay [1] and in assay [2] were 75 nM and 3.2 nM, respectively.
For `Cc1cc(-c2nc(C3(c4ccc(-c5cnc(N)nc5)nc4)CCC3)no2)[nH]n1` [Example 80, 5-(5-{1-[5-(3-methyl-1H-pyrazol-5-yl)-1,2,4-oxadiazol-3-yl]cyclobutyl}pyridin-2-yl)pyrimidin-2-amine], the IC50 in assay [1] is 160 nM; in assay [2] it was 5.5 nM.
